In patent publication US20230181524A1, “PHARMACEUTICAL COMBINATION AND USE THEREOF” (NATURAL MEDICINE INSTITUTE OF ZHEJIANG YANGSHENGTANG CO., …, priority 2020, published 2023):
Where “and” joins values, the source holds several entries; their conditions need not be identical. Equal values may be shown once. d = 2'-deoxy (DNA)

Legend:
[1] = system: HOS human osteosarcoma cells; assay: Cell counts of drug combination administration (Trypan Blue), cell viability
Protocol: (§1) (1) Cells were plated in a 10 cm culture plate to grow a density of about 90%. The medium was removed, and the adherent cells were washed once with a PBS buffer. 1 mL of trypsin was added, and immediately discarded after mixing well. The cells were placed in the incubator and digested for about 5 min, and then about 10 ml of fresh medium was added. 10 μL was taken for counting.
(§2) (2) 10 μL of the well-mixed cells were taken and mixed into 10 μL of Trypan Blue solution, and counted.
(§3) (3) After counting, the cells were diluted to 1×10^5 cells/ml. The diluted cells were mixed well, and plated into a 24-well plate with 500 μL per well, i.e., about 50,000 cells per well.
(§4) (4) The cells plated in the 24-well plate were cultured for about 24h, and then drugs were added. […]
(§5) (5) After 24h of dosing, the medium was discarded. About 150 μL of trypsin was added and then discarded. The cells were digested for 5 min;
(§6) (6) After digestion, equivalent amounts of PBS were added into each well and mixed uniformly. Then, 10 μL/well of Trypan Blue solution was added and mixed uniformly. 10 μL of the well-mixed solution was taken and counted. In accordance with “Cell viability=Cell Count of Test Group/Cell Count of Control Group×100%”, the cell viability of various groups was calculated.
(§7) The coefficient of drug in interaction (CDI) was used to evaluate the nature of the interaction between the two drugs. The test groups were divided into the control group, the group of A drug, the group of B drug and the group of AB in combination, and used for detecting the cell viability in A, B and AB groups, respectively.

[2] = system: 143B human osteosarcoma cells; assay: as above
Protocol: as §1, §2, §3, §4, §5, §6, §7

HEK293 cells = assay: Cell viability compared with HEK293 cells (specificity); format: cell-based; conditions: in combination with ascorbic acid
Protocol: HEK293 cells, HOS human osteosarcoma cells, and 143B human osteosarcoma cells were subcultured in an incubator at 37° C., 5% CO2 using a RPMI-1640 medium containing 10% fetal bovine serum (FBS).
(§8) 10 μL was taken for counting.
(5) After 24h of dosing, the medium was discarded. […] The cells were digested for 5 min;

[3] = system: MC38 human colon cancer cells; assay: Cell viability, method of Example 1
Protocol: as §1, §2, §3
(§9) (4) The cells plated in the 24-well plate were cultured for about 24h, and then drugs were added. Various test groups comprise 5 groups as follows: the single-drug group of PKF118-310 (with a concentration of 0.1 μM), the group of ascorbic acid (with a concentration of 0.5 mM), the group of PKF118-310 (with a concentration of 0.1 μM) in combination with ascorbic acid (with a concentration of 0.5 mM); the control group that is a cell group to which only solvent DMSO is added; and the blank group that is a group to which no cell is added and only solvent (DMSO) is added.
as §5, §6
(§10) The inhibitory effect of PKF118-310 on the MC38 human colon cancer cells and the HCT116 human […] cancer cells was detected in accordance with the corresponding method of Example 1.

[4] = system: HCT116 human colon cancer cells; assay: Cell viability of single-drug administration, concentration gradient (CCK-8); format: cell-based; conditions: concentrations ranging from 0 to 100 μM
Protocol: as §8
(§11) The diluted cells were plated into a 96-well plate with 100 μL per well, i.e., about 10,000 cells per well. […]
(§12) (4) After 24h of dosing, 10 μL of CCK-8 solution was added. The cells were incubated in the incubator for 1-2 hours, and then measured at 490 nm using a microplate reader for the absorbance (OD value) of each well. The results were recorded. The relative cell viability was calculated as follows:
(§13) The cell viability of the control group obtained according the equation is 100%.

[5] = system: MC38 human colon cancer cells; assay: as above; format: cell-based; conditions: concentrations ranging from 0 to 100 μM
Protocol: as §8, §11, §12, §13

[6] = system: 143B human osteosarcoma cells; assay: siRNA against β-catenin transfection with or without sodium ascorbate, cell viability by cell count; format: cell-based; conditions: 143B cells
From the text: SiRNA is designed against the nucleotide sequence of β-catenin, and the siRNA codes are 484, 1202, and 1387, respectively. The sequences of sense strand and anti-sense strand of 484 are shown in SEQ ID NO. 1-2, respectively, and the sequences of sense strand and anti-sense strand of 1202 are shown in SEQ ID NO. 3-4, respectively, and the sequences of sense strand and anti-sense strand of 1387 are shown in SEQ ID NO. 5-6, respectively, wherein there are 2 T-bases at the 3′ end of each strand. 143B human osteosarcoma cells were subcultured at 37° C., 5% CO2 in an incubator with a RPMI-1640 medium containing 10% fetal bovine serum. The particular steps were as follows:
as §8
Then, the medium was discarded and replaced with 500 μL of serum-free medium.
(5) […] of siRNA was added into 50 μL of serum-free medium and mixed well.
(6) 1 μL of Lipofectamin 2000 transfection reagent was added into 50 μL of serum-free medium, mixed well, and stood at room temperature for 5 min.
(7) The siRNA diluted in Step (5) and the Lipofectamin 2000 reagent obtained in Step (6) were mixed, shaken well, and stood at room temperature for 20 min.
(8) 100 μL of the mixture obtained in Step (7) was added into the wells of the cell culture plate, cultured at 37° C. for 4h, and then the medium was replaced with normal medium. And an ascorbic acid solution with a concentration of 0.5 mM into the ascorbic acid group and the combination group.
(9) After 24h of dosing, the medium was discarded. […] The cells were digested for 5 min;

[7] = system: 3AO human ovarian cancer cells; assay: cells; conditions: Homo sapiens, 3AO, read-out: cell viability
Protocol: as §1, §2, §3, §9, §5, §6
(§14) The inhibitory effect of PKF118-310 on the SKOV3 human ovarian cancer cells and the 3AO human ovarian cancer cells was detected in accordance with the corresponding method of Example 1.

[8] = system: SKOV3 human ovarian cancer cells; assay: cells; conditions: Homo sapiens, SK-OV-3, read-out: cell viability
Protocol: as §1, §2, §3, §9, §5, §6, §14

[9] = alone; PKF118-310 0.7 mg/kg s.c. or ascorbate 1 g/kg i.v. every 3 days
Protocol: The day of the first injection was taken as Day 1, and then the body weight and the tumor size of the nude mice were examined and recorded: the tumor volume (mm^3)=Length (L)×Width (W)^2/2. The tumor was subject to Luciferin fluorescence imaging. That is, a 1 mg/mL of aqueous potassium D-fluorescein solution was prepared, and each mouse was intraperitoneally injected with 100 μL. After 10 min of injection, the mice were subject to Luciferin fluorescence imaging with a small animal live imaging instrument.

DB lymphoma cells = conditions: 2 mM ascorbic acid alone
Protocol: as §1, §2, §3, §9, §5, §6
For example, as for the DB lymphoma cells, the control group involves adding the solvent DMSO alone, the Vc group involves adding 2 mM of ascorbic acid, the low-dose PKF group involves adding 2 μM of PKF118-310, the low-dose PKF+Vc group involves adding 2 μM of PKF118-310 and 2 mM of ascorbic acid, the high-dose PKF group involves adding 5 μM of PKF118-310, and the high-dose PKF+the Vc group involves adding 5 μM of PKF118-310 and 2 mM of ascorbic acid.

[10] = system: HCT116 human colon cancer cells; assay: cells; conditions: Homo sapiens, HCT-116, read-out: cell viability
Protocol: as §1, §2, §3, §9, §5, §6, §10

[11] = 10 μM in combination with 0.5 mM ascorbic acid
[12] = 20 μM in combination with 0.5 mM sodium ascorbate
[13] = Homo sapiens, 143B, read-out: cell viability
[14] = Homo sapiens, MC-38, read-out: cell viability
[15] = administration of the siRNA alone
[16] = siRNA in combination with 0.5 mM sodium ascorbate

## Cc1nc2c(=O)n(C)c(=O)nc-2n(C)n1 [3-Methyltoxoflavin]
[1]; 10 μM and 0.5 mM ascorbic acid
  cell viability: 54%
[1]; [11]
  CDI value: 0.86
[1]; single drug 10 μM
  cell viability: 63%

## OC1CCC(Oc2cccc3cnc(Nc4ccc5nc[nH]c5c4)nc23)CC1 (centres unmarked) [NCB-0846]
[1]; [12]
  CDI value: 0.16
[2]; 143B cells, 20 μM in combination with 0.5 mM sodium ascorbate
  CDI value: 0.13
HEK293 cells
  specificity of inhibition of tumor cell viability as compared with the HEK293 cells: can specifically inhibit the cell viability of the 143B cells and the HOS cells

## C[C@H]1[C@H]2N(C(=O)CN(C)N2C(=O)NCc2ccccc2)[C@@H](Cc2ccc(OP(=O)(O)O)cc2)C(=O)N1Cc1cccc2cccnc12 [PRI-724]
[1]; [12]
  CDI value: 0.41
  cell viability: 74%
[1]; single-drug 20 μM
  cell viability: 102%

## Cn1nc(-c2ccc(C(F)(F)F)cc2)nc2c(=O)n(C)c(=O)nc1-2 [Walrycin B]
[1]; 10 μM and 0.5 mM ascorbic acid
  cell viability: 30%
[1]; [11]
  CDI value: 0.73
[1]; single drug 10 μM
  cell viability: 42%

## CCC(C)c1nc2c(=O)n(C)c(=O)nc-2n(C(C)C)n1 (centres unmarked) [compound C-1]
[2]; 143B cells, 5 μM in combination with 0.5 mM ascorbic acid
  CDI value: 0.40
[2]; [13]
  viability at 5 µM: 50%
[2]; human, 24 h, 5 μM
  cell viability: 19%
[3]; [14]
  viability at 5 µM: 90%
[3]; MC38 cells, 5 μM in combination with 0.5 mM ascorbic acid
  CDI value: 0.68
[3]; human, 24 h, 5 μM
  cell viability: 59%

## CC(C)c1nc2c(=O)n(C)c(=O)nc-2n(C)n1 [compound C-2]
[2]; 143B cells, 1 μM in combination with 0.5 mM ascorbic acid
  CDI value: 0.37
[2]; [13]
  viability at 1 µM: 83%
[2]; human, 24 h, 1 μM
  cell viability: 28%
[3]; [14]
  viability at 1 µM: 83%
[3]; MC38 cells, 1 μM in combination with 0.5 mM ascorbic acid
  CDI value: 0.07
[3]; human, 24 h, 1 μM
  cell viability: 6%

## O=C1[O][Pt]2([NH][C@@H]3CCCC[C@H]3[NH]2)[O]C1=O [oxaliplatin]
[4]
  effect on the cell viability: does not have significant effect on the cell viability
[5]
  effect on the cell viability: does not have significant effect on the cell viability

## O=C1O[C@H]([C@@H](O)CO)C([O-])=C1O.[Na+] [sodium ascorbate]
[1]; 0.5 mM sodium ascorbate (ascorbic acid) alone
  cell viability: 91% and 96% and 76%
[1]; 0.5 mM sodium ascorbate (ascorbic acid) alone, listed as ascorbic acid
  cell viability: 98% and 99%
[2]; 143B cells, 0.5 mM sodium ascorbate (ascorbic acid) alone
  cell viability: 54% and 80%
[2]; 143B cells, 0.5 mM sodium ascorbate (ascorbic acid) alone, listed as ascorbic acid
  cell viability: 96% and 92%
[6]; Homo sapiens, 0.5 mM sodium ascorbate alone (siRNA experiment)
  viability at 500 µM: 63%
[7]
  viability at 500 µM: 99%
[8]
  viability at 500 µM: 97%
[9]
  effect on the body weight of mice: no effect on the body weight of mice
DB lymphoma cells
  cell viability: 91%
[10]
  viability at 500 µM: 98%
[3]; Homo sapiens, MC-38, read-out: cell viability, MC38 cells, 0.5 mM sodium ascorbate (ascorbic acid) alone
  viability at 500 µM: 83%
[3]; MC38 cells, 0.5 mM sodium ascorbate (ascorbic acid) alone
  cell viability: 96% and 98%

## siRNA 484: siRNA against β-catenin, sense and anti-sense strands SEQ ID NO. 1-2, 2 T-bases at the 3′ end of each strand (sense CCUUCACUCAAGAACAAGU; antisense ACUUGUUCUUGAGUGAAGG; RNA, 3' dTdT, backbone not given here)
[6]; [15]
  cell viability: 90%
[6]; [16]
  CDI value: 0.46
  cell viability: 26%

## siRNA 1202: siRNA against β-catenin, sense and anti-sense strands SEQ ID NO. 3-4, 2 T-bases at the 3′ end of each strand (sense GCUCAUCAUACUGGCUAGU; antisense ACUAGCCAGUAUGAUGAGC; RNA, 3' dTdT, backbone not given here)
[6]; [15]
  cell viability: 91%
[6]; [16]
  CDI value: 0.30
  cell viability: 17%

## siRNA 1387: siRNA against β-catenin, sense and anti-sense strands SEQ ID NO. 5-6, 2 T-bases at the 3′ end of each strand (sense GUCAACGUCUUGUUCAGAA; antisense UUCUGAACAAGACGUUGAC; RNA, 3' dTdT, backbone not given here)
[6]; [15]
  cell viability: 80%
[6]; [16]
  CDI value: 0.40
  cell viability: 20%
